Test: Sensory evaluation of mayonnaise containing the agent
Conditions: ten panels
Protocol: Sensory evaluation of each drink was carried out by ten panels. […] The piercing aroma characteristic to aldehydes is a characteristic aroma common to every aldehyde and refers to an irritant off-smell giving an image of deteriorated oils and fats, soap, metals, Houttuynia cordata, etc. The judgment of smell was performed by comparing the effects at different concentrations of the acid taste and/or acid smell-reducing agent, and a concentration giving the highest acid taste/acid smell quality was selected.
A mayonnaise base material (100 g) was prepared by mixing 12 g of edible vinegar, 75 g of vegetable oils and fats, and 13 g of an aqueous solution containing egg yolk and spices. To the resulting mixture was added (Z,Z)-4,7-tridecadienal as the acid taste and/or acid smell-reducing agent of the present invention in concentrations shown in the following Table 11 to give mayonnaise containing the agent, followed by sensory evaluation as in Example 1.

Compound: CCCCC/C=C\C/C=C\CCC=O [(Z,Z)-4,7-tridecadienal]
- A: number of panels, acid taste/acid smell extreme and cause irritation (0.005 ppt): 10
- B: number of panels, acid taste/acid smell slightly strong and slightly cause irritation (0.005 ppt): 0
- C: number of panels, acid taste/acid smell slightly unpleasant (0.005 ppt): 0
- Flavor judgment: number of panels who judged acid taste/acid smell quality the highest (0.005 ppt): 0
- N: number of panels, irritation of acid reduced to give a mild acid taste (0.005 ppt): 0
- X: number of panels, acid taste reduced but piercing odor characteristic to aldehydes unpleasant (0.005 ppt): 0
- A: number of panels, acid taste/acid smell extreme and cause irritation (0.02 ppt): 8
- B: number of panels, acid taste/acid smell slightly strong and slightly cause irritation (0.02 ppt): 2
- C: number of panels, acid taste/acid smell slightly unpleasant (0.02 ppt): 0
- Flavor judgment: number of panels who judged acid taste/acid smell quality the highest (0.02 ppt): 0
- N: number of panels, irritation of acid reduced to give a mild acid taste (0.02 ppt): 0
- X: number of panels, acid taste reduced but piercing odor characteristic to aldehydes unpleasant (0.02 ppt): 0
- A: number of panels, acid taste/acid smell extreme and cause irritation (0.1 ppt): 7
- B: number of panels, acid taste/acid smell slightly strong and slightly cause irritation (0.1 ppt): 2
- C: number of panels, acid taste/acid smell slightly unpleasant (0.1 ppt): 1
- Flavor judgment: number of panels who judged acid taste/acid smell quality the highest (0.1 ppt): 0
- N: number of panels, irritation of acid reduced to give a mild acid taste (0.1 ppt): 0
- X: number of panels, acid taste reduced but piercing odor characteristic to aldehydes unpleasant (0.1 ppt): 0
- A: number of panels, acid taste/acid smell extreme and cause irritation (0.2 ppt): 3
- B: number of panels, acid taste/acid smell slightly strong and slightly cause irritation (0.2 ppt): 4
- C: number of panels, acid taste/acid smell slightly unpleasant (0.2 ppt): 3
- Flavor judgment: number of panels who judged acid taste/acid smell quality the highest (0.2 ppt): 0
- N: number of panels, irritation of acid reduced to give a mild acid taste (0.2 ppt): 0
- X: number of panels, acid taste reduced but piercing odor characteristic to aldehydes unpleasant (0.2 ppt): 0
- A: number of panels, acid taste/acid smell extreme and cause irritation (0.5 ppt): 0
- B: number of panels, acid taste/acid smell slightly strong and slightly cause irritation (0.5 ppt): 2
- C: number of panels, acid taste/acid smell slightly unpleasant (0.5 ppt): 3
- Flavor judgment: number of panels who judged acid taste/acid smell quality the highest (0.5 ppt): 1
- N: number of panels, irritation of acid reduced to give a mild acid taste (0.5 ppt): 5
- X: number of panels, acid taste reduced but piercing odor characteristic to aldehydes unpleasant (0.5 ppt): 0
- A: number of panels, acid taste/acid smell extreme and cause irritation (1 ppb): 0
- B: number of panels, acid taste/acid smell slightly strong and slightly cause irritation (1 ppb): 0
- C: number of panels, acid taste/acid smell slightly unpleasant (1 ppb): 2
- Flavor judgment: number of panels who judged acid taste/acid smell quality the highest (1 ppb): 0
- N: number of panels, irritation of acid reduced to give a mild acid taste (1 ppb): 4
- X: number of panels, acid taste reduced but piercing odor characteristic to aldehydes unpleasant (1 ppb): 4
- A: number of panels, acid taste/acid smell extreme and cause irritation (1 ppt): 0
- B: number of panels, acid taste/acid smell slightly strong and slightly cause irritation (1 ppt): 2
- C: number of panels, acid taste/acid smell slightly unpleasant (1 ppt): 2
- Flavor judgment: number of panels who judged acid taste/acid smell quality the highest (1 ppt): 1
- N: number of panels, irritation of acid reduced to give a mild acid taste (1 ppt): 6
- X: number of panels, acid taste reduced but piercing odor characteristic to aldehydes unpleasant (1 ppt): 0
- A: number of panels, acid taste/acid smell extreme and cause irritation (5 ppt): 0
- B: number of panels, acid taste/acid smell slightly strong and slightly cause irritation (5 ppt): 0
- C: number of panels, acid taste/acid smell slightly unpleasant (5 ppt): 2
- Flavor judgment: number of panels who judged acid taste/acid smell quality the highest (5 ppt): 4
- N: number of panels, irritation of acid reduced to give a mild acid taste (5 ppt): 8
- X: number of panels, acid taste reduced but piercing odor characteristic to aldehydes unpleasant (5 ppt): 0
- A: number of panels, acid taste/acid smell extreme and cause irritation (10 ppb): 0
- B: number of panels, acid taste/acid smell slightly strong and slightly cause irritation (10 ppb): 0
- C: number of panels, acid taste/acid smell slightly unpleasant (10 ppb): 1
- Flavor judgment: number of panels who judged acid taste/acid smell quality the highest (10 ppb): 0
- N: number of panels, irritation of acid reduced to give a mild acid taste (10 ppb): 2
- X: number of panels, acid taste reduced but piercing odor characteristic to aldehydes unpleasant (10 ppb): 7
- A: number of panels, acid taste/acid smell extreme and cause irritation (20 ppt): 0
- B: number of panels, acid taste/acid smell slightly strong and slightly cause irritation (20 ppt): 0
- C: number of panels, acid taste/acid smell slightly unpleasant (20 ppt): 3
- Flavor judgment: number of panels who judged acid taste/acid smell quality the highest (20 ppt): 4
- N: number of panels, irritation of acid reduced to give a mild acid taste (20 ppt): 7
- X: number of panels, acid taste reduced but piercing odor characteristic to aldehydes unpleasant (20 ppt): 0
- A: number of panels, acid taste/acid smell extreme and cause irritation (50 ppb): 0
- B: number of panels, acid taste/acid smell slightly strong and slightly cause irritation (50 ppb): 0
- C: number of panels, acid taste/acid smell slightly unpleasant (50 ppb): 1
- Flavor judgment: number of panels who judged acid taste/acid smell quality the highest (50 ppb): 0
- N: number of panels, irritation of acid reduced to give a mild acid taste (50 ppb): 1
- X: number of panels, acid taste reduced but piercing odor characteristic to aldehydes unpleasant (50 ppb): 8
- A: number of panels, acid taste/acid smell extreme and cause irritation (100 ppt): 0
- B: number of panels, acid taste/acid smell slightly strong and slightly cause irritation (100 ppt): 1
- C: number of panels, acid taste/acid smell slightly unpleasant (100 ppt): 4
- Flavor judgment: number of panels who judged acid taste/acid smell quality the highest (100 ppt): 0
- N: number of panels, irritation of acid reduced to give a mild acid taste (100 ppt): 4
- X: number of panels, acid taste reduced but piercing odor characteristic to aldehydes unpleasant (100 ppt): 1
- A: number of panels, acid taste/acid smell extreme and cause irritation (500 ppt): 0
- B: number of panels, acid taste/acid smell slightly strong and slightly cause irritation (500 ppt): 0
- C: number of panels, acid taste/acid smell slightly unpleasant (500 ppt): 4
- Flavor judgment: number of panels who judged acid taste/acid smell quality the highest (500 ppt): 0
- N: number of panels, irritation of acid reduced to give a mild acid taste (500 ppt): 4
- X: number of panels, acid taste reduced but piercing odor characteristic to aldehydes unpleasant (500 ppt): 2

From US20140120232A1, “ACID TASTE/ACID SMELL-REDUCING AGENT” (T. HASEGAWA CO., LTD., priority 2011, published 2014)
